The nature of data set [1]: Head-to-tail native chemical ligation in two-module microfluidic flow: SEAon peptide amide rearranged to SEAE thioester (pH 1, TCEP, 60 min, 90 or 65 C), then MPAA (0.4 M)/Na2HPO4 (0.2 M) pH 7.3 cyclisation onto N-terminal Cys. As to conditions: 30-membered ring, water (phosphate buffer, MPAA, TCEP; decane segmented carrier; 6 M Gn.HCl for 4l-p), 0.6 mM, 37.0 °C, 0.067 h, 2 steps.

Data set [2] is described as follows: Head-to-tail native chemical ligation in two-module microfluidic flow: SEAon peptide amide rearranged to SEAE thioester (pH 1, TCEP, 60 min, 90 or 65 C), then MPAA (0.4 M)/Na2HPO4 (0.2 M) pH 7.3 cyclisation onto N-terminal Cys, 4 min. The conditions noted are these: 30-membered ring, water (phosphate buffer, MPAA, TCEP; decane segmented carrier), 0.6 mM, 37.0 °C, 0.067 h, 2 steps, scale: %.

[3] abbreviates: from CC[C@H](C)[C@H](NC(=O)[C@@H](N)CS)C(=O)N[C@@H](CC(C)C)C(=O)N[C@@H](CC(N)=O)C(=O)NCC(=O)N1CCC[C@H]1C(=O)N[C@H](C(=O)N[C@@H](Cc1c[nH]cn1)C(=O)NCC(=O)N[C@@H](CC(C)C)C(=O)SCCNCCS)C(C)C.
[4] abbreviates: from CC[C@H](C)[C@H](NC(=O)[C@@H](N)CS)C(=O)N[C@@H](CC(C)C)C(=O)N[C@@H](CC(=O)O)C(=O)NCC(=O)N1CCC[C@H]1C(=O)N[C@H](C(=O)N[C@@H](Cc1c[nH]cn1)C(=O)NCC(=O)N[C@@H](CC(C)C)C(=O)SCCNCCS)C(C)C.

On to `CC[C@H](C)[C@@H]1NC(=O)[C@H](CS)NC(=O)[C@H](CC(C)C)NC(=O)CNC(=O)[C@H](Cc2c[nH]cn2)NC(=O)[C@H](C(C)C)NC(=O)[C@@H]2CCCN2C(=O)CNC(=O)[C@H](CC(N)=O)NC(=O)[C@H](CC(C)C)NC1=O` [H-CILNGPVHGL-SEAon (via SEAE thioester)], for which the ring closure, yield over several steps in data set [1] (setting [3]) came out at 80%. The same compound showed a ring closure, conversion by HPLC in data set [2] (setting [3]) of 85.

`CC[C@H](C)[C@@H]1NC(=O)[C@H](CS)NC(=O)[C@H](CC(C)C)NC(=O)CNC(=O)[C@H](Cc2c[nH]cn2)NC(=O)[C@H](C(C)C)NC(=O)[C@@H]2CCCN2C(=O)CNC(=O)[C@H](CC(=O)O)NC(=O)[C@H](CC(C)C)NC1=O` [H-CILDGPVHGL-SEAon (via SEAE thioester)] came in with a ring closure, yield over several steps in data set [1] (setting [4]) of 64%. Besides, the ring closure, conversion by HPLC in data set [2] (setting [4]) is 80.

For the origin of these results see publication PMC6054628.
